The term melting point denotes the temperature of the solid-liquid transition.

Structures can show the parent of a compound that is named as a salt.

Turning to `CCc1nc2c(N)nc3ccccc3c2n1CC#Cc1cccnc1` (as salt: hydroiodid) [Example 1, 2-Ethyl-1-[3-(pyridin-3-yl)-2-propynyl]-1H-imidazo[4,5-c]quinolin-4-amine], the melting point is 249 to 251 °C (dec.).
For the compound `CCc1nc2c(N)nc3ccccc3c2n1CC#Cc1cccs1` (as salt: hydroiodid) [Example 2, 2-Ethyl-1-[3-(thien-2-yl)-2-propynyl]-1H-imidazo[4,5-c]quinolin-4-amine], the melting point lay within 185 to 205 °C.
Then `CCc1nc2c(N)nc3ccccc3c2n1CC#Cc1ccccc1` (as salt: hydroiodid) [Example 4, 2-Ethyl-1-(3-phenyl-2-propynyl)-1H-imidazo[4,5-c]quinolin-4-amine], with 200 to 212 °C (dec.); and `CCc1nc2c(N)nc3ccccc3c2n1CC#Cc1cnccn1` (as salt: hydroiodid) [Example 5, 2-Ethyl-1-[3-(pyrazin-2-yl)-2-propynyl]-1H-imidazo[4,5-c]quinolin-4-amine], with 180 to 225 °C (dec.); and `CCc1nc2c(N)nc3ccccc3c2n1CCCC#Cc1ccc(OC)cc1` (as salt: hydroiodid) [Example 14, 2-Ethyl-1-[5-(4-methoxyphenyl)-4-pentynyl]-1H-imidazo[4,5-c]quinolin-4-amine], with 230 °C.
Consider `CCOC(=O)c1ccc(C#CCn2c(CC)nc3c(N)nc4ccccc4c32)cc1` [Example 6, Ethyl 4-[3-(4-Amino-2-ethyl-1H-imidazo[4,5-c]quinolin-1-yl)-1-propynyl]benzoate], for which the melting point is 221 to 222 °C (dec.).
As for `CCc1nc2c(N)nc3ccccc3c2n1CC#Cc1ccc(OC)cc1` [Example 7, 2-Ethyl-1-[3-(4-methoxyphenyl)-2-propynyl]-1H-imidazo[4,5-c]quinolin-4-amine], the melting point was 179 to 181 °C.
Next, `CCc1nc2c(N)nc3ccccc3c2n1CC#Cc1cccc(C(F)(F)F)c1` [Example 8, 2-Ethyl-1-[3-(3-trifluoromethylphenyl)-2-propynyl]-1H-imidazo[4,5-c]quinolin-4-amine]: 202.5 to 203.5 °C; `CCc1nc2c(N)nc3ccccc3c2n1CC#Cc1ccccc1C(F)(F)F` [Example 9, 2-Ethyl-1-[3-(2-trifluoromethylphenyl)-2-propynyl]-1H-imidazo[4,5-c]quinolin-4-amine]: 234 to 235 °C (dec.).
Next, `CCc1nc2c(N)nc3ccccc3c2n1CC#Cc1ccc([N+](=O)[O-])cc1` [Example 10, 2-Ethyl-1-[3-(4-nitrophenyl)-2-propynyl]-1H-imidazo[4,5-c]quinolin-4-amine]: 190 to 206 °C; `CCc1nc2c(N)nc3ccccc3c2n1CC#Cc1cccc([N+](=O)[O-])c1` [Example 11, 2-Ethyl-1-[3-(3-nitrophenyl)-2-propynyl]-1H-imidazo[4,5-c]quinolin-4-amine]: 224 to 243 °C; `CCc1nc2c(N)nc3ccccc3c2n1CCCC#Cc1cccs1` [Example 12, 2-Ethyl-1-[5-(thien-2-yl)-4-pentynyl]-1H-imidazo[4,5-c]quinolin-4-amine]: 175 to 190 °C (dec.).
Next, `CCc1nc2c(N)nc3ccccc3c2n1CCCC#Cc1cccnc1` [Example 13]: 188 to 192 °C.
Take `CCc1nc2c(N)nc3ccccc3c2n1CCCC#Cc1ccccc1` [Example 15, 2-Ethyl-1-(5-phenyl-4-pentynyl)-1H-imidazo[4,5-c]quinolin-4-amine]: the melting point is 199 to 202 °C.
Then `CCc1nc2c(N)nc3ccccc3c2n1CCCC#Cc1cccc(C(F)(F)F)c1` [Example 16, 2-Ethyl-1-[5-(3-trifluoromethylphenyl)-4-pentynyl]-1H-imidazo[4,5-c]quinolin-4-amine], with 178 to 181 °C; and `CCc1nc2c(N)nc3ccccc3c2n1CCC/C=C/c1cccnc1` [Example 17, (E)-2-Ethyl-1-[5-(pyridin-3-yl)-4-pentenyl]-1H-imidazo[4,5-c]quinolin-4-amine], with 188 to 190 °C.
Regarding `CCc1nc2c(N)nc3ccccc3c2n1CCC/C=C/c1ccc(OC)cc1` [Example 18, (E)-2-Ethyl-1-[5-(4-methoxyphenyl)-4-pentenyl]-1H-imidazo[4,5-c]quinolin-4-amine], the melting point lay within 179 to 180 °C.

Source of the values: patent US8802853B2, “Arylalkenyl and arylalkynyl substituted imidazoquinolines” (3M Innovative Properties Company, priority 2003, dated 2014).
